Legend:
[1] = test system: P-IKKα levels in L363 cells; assay: Biological Assay B: effect of compounds on P-IKKα levels in L363 cells; type: cell-based; settings: Homo sapiens, L-363; L363 cells with BAFF, 2 hr treatment; averaged values; read-out: IKKα Cellular IC50
Protocol: Effect of Compounds on P-IKKα Levels in L363 Cells
All compounds tested were dissolved in DMSO and further dilutions were made in culture medium. Final DMSO concentration was 1% (v/v) in cell assays. The human L363 cells (ATCC) were cultured in RPMI 1640 medium supplemented with GlutaMax and 10% fetal calf serum (PAA). Cells were routinely maintained at densities of 0.2×10^6 cells per ml-1×10^6 cells per ml at 37° C. in a humidified 5% CO2 atmosphere. Cells were passaged twice a week splitting back to obtain the low density. Cells were seeded in 96 well plates (Nunc 167008) at 2×10^6 per ml media in a volume of 75 μl per well plus 25 μl 1 μg/ml recombinant human B-cell activating factor (BAFF/BLyS/TNFSF13B). Seeded cells were incubated at 37° C. in a humidified 5% CO2 atmosphere for 24 hr. Drugs and/or solvents were added (20 μl) to a final volume of 120 μl. Following 2 hr treatment plates were removed from the incubator and cell lysis was achieved by the addition of 30 μl 5× lysis buffer followed by shaking on a plate shaker at 4° C. for 10 min. At the end of this incubation lysed cells were centrifuged at 800×g for 20 min at 4° C. and the lysate was assessed for P-IKKα levels by sandwich immuno-assay carried out in anti-rabbit antibody coated Mesoscale plates. Within an experiment, the results for each treatment were the mean of 2 replicate wells. For initial screening purposes, compounds were tested using an 8 point dilution curve (serial 1:3 dilutions). For each experiment, controls (containing MG132 and BAFF but no test drug) and a blank incubation (containing MG132 and BAFF and 10 μM ADS125117, a test concentration known to give full inhibition) were run in parallel. The blank incubation value was subtracted from all control and sample values. To determine the IC50 a sigmoidal curve was fitted to the plot of % inhibition of control P-IKKα levels versus Log10 compound concentration.

[2] = test system: JJN-3 cells; assay: Biological Assay C: antiproliferative activity on JJN-3 cells (CellTiter-Glo); type: cell-based; settings: Homo sapiens, 72 hr of treatment, averaged values
Protocol: (§1) Determination of Antiproliferative Activity on LP-1, L-363 and JJN-3 Cells
(§2) All compounds tested were dissolved in DMSO and further dilutions were made in culture medium. Final DMSO concentration was 0.3% (v/v) in cell proliferation assays. Viability was assessed using CellTiter-Glo cell viability assay kit (Promega). The human LP-1, L-363 and JJN-3 cells (DSMZ) were cultured in RPMI 1640 medium supplemented with 2 mM L-glutamine, and 10% fetal calf serum (PAA). Cells were routinely kept as suspension cells at 37° C. in a humidified 5% CO2 atmosphere. Cells were passaged at a seeding density of 0.2×10^6/ml twice a week. Cells were seeded in black tissue culture treated 96-well plates (Perkin Elmer). Densities used for plating ranged from 2,000 to 6,000 cells per well in a total volume of 75 μl medium. After twenty four hours, drugs and/or solvents were added (25 μl) to a final volume of 100 μl. Following 72 hr of treatment plates were removed from the incubator and allowed to equilibrate to room temperature for approx 10 min. 100 μl CellTiter-Glo reagent was added to each well that was then covered (Perkin Elmer Topseal) and shaken on plate shaker for 10 min. Luminescence was measured on a HTS Topcount (Perkin Elmer). Within an experiment, the results for each treatment were the mean of 2 replicate wells. For initial screening purposes, compounds were tested using a 9 point dilution curve (serial 1:3 dilutions). For each experiment, controls (containing no drug) and a blank incubation (containing cells read at the time of compound addition) were run in parallel. The blank value was subtracted from all control and sample values. For each sample, the mean value for cell growth (in relative light units) was expressed as a percentage of the mean value for cell growth of the control.

[3] = test system: L-363 cells; assay: Biological Assay C: antiproliferative activity on L-363 cells (CellTiter-Glo); type: cell-based; settings: Homo sapiens, 72 hr of treatment, averaged values
Protocol: as §1, §2

[4] = target: T1, Recombinant Human NF-kappaB-inducing Kinase (NIK/MAP3K14) (Homo sapiens (Human), UniProt Q99558); assay: Biological Assay A: inhibition of recombinant human NIK/MAP3K14 activity (MSD, MBP substrate); settings: 25 μM ATP, 10 nM NIK/MAP3K14, 1 h at 25° C.; averaged over all measurements on all batches; read-out: Biochemical (MSD MBP) IC50
T1 sequence (Q99558 whole entry): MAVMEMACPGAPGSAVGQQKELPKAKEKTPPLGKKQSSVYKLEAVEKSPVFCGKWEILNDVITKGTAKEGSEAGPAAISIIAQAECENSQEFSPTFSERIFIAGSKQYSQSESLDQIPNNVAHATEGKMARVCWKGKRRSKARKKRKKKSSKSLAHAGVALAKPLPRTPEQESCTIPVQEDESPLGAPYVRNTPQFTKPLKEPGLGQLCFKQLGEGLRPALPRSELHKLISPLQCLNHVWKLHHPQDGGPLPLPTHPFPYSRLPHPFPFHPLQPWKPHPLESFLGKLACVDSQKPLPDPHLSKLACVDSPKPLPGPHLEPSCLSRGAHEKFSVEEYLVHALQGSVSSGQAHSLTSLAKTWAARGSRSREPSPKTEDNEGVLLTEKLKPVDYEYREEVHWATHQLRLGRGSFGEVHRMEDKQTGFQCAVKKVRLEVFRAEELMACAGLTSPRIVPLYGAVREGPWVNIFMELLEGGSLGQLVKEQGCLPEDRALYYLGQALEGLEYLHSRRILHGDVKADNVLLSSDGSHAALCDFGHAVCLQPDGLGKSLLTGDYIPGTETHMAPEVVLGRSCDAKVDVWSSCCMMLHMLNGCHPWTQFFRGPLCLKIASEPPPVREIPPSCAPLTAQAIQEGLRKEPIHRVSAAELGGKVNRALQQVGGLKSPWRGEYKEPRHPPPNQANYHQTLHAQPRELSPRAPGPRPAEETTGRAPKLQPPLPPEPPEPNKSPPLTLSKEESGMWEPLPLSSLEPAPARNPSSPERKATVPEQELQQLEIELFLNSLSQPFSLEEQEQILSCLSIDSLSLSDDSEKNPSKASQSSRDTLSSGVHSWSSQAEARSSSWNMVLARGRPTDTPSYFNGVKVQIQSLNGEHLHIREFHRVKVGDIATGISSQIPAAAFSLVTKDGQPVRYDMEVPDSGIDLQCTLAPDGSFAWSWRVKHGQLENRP
Protocol: Inhibition of Recombinant Human NF-kappaB-inducing Kinase (NIK/MAP3K14) Activity
Assay buffer was 50 mM Tris pH 7.5 containing 1 mM EGTA (ethylene glycol tetraacetic acid), 1 mM DTT (dithiothreitol), 0.1 mM Na3VO4, 5 mM MgCl2, 0.01% Tween® 20. Assays were carried out in 384 well Mesoscale high binding plates which had been coated with myelin basic protein (MBP) and blocked with bovine serum albumin to prevent non-specific protein binding. All compounds tested were dissolved in dimethyl sulfoxide (DMSO) and further dilutions were made in assay buffer. Final DMSO concentration was 1% (v/v) in assays. Incubations consisted of compound (1% DMSO in control and blank wells), 25 μM Adenosine-5′-triphosphate (ATP), and 10 nM NIK/MAP3K14 substituting enzyme with buffer in the blank wells. Incubations were carried out for 1 h at 25° C. and were followed by washing and sequential incubation with rabbit anti-phospho-MBP and anti-rabbit Ig Sulfotag antibody before reading bound Sulfotag on a Mesoscale Discovery. Signal obtained in the wells containing blank samples was subtracted from all other wells and IC50's were determined by fitting a sigmoidal curve to % inhibition of control versus Log10 compound concentration.

[5] = test system: LP-1 cells; assay: Biological Assay C: antiproliferative activity on LP-1 cells (CellTiter-Glo); type: cell-based; settings: Homo sapiens, 72 hr of treatment, averaged values
Protocol: as §1, §2

[6] = target: T1, Recombinant Human NF-kappaB-inducing Kinase (NIK/MAP3K14); assay: Biological Assay A2: inhibition of auto-phosphorylation of recombinant human NIK/MAP3K14 (AlphaScreen); type: biochemical; settings: 25 microM ATP, 0.2 nM GST-tagged NIK/MAP3K14, 1 h at 25° C., averaged values, read-out: Alpha-Screen IC50
Protocol: Inhibition of Auto-phosphorylation of Recombinant Human NF-kappaB-inducing Kinase (NIK/MAP3K14) Activity (AlphaScreen®)
NIK/MAP3K14 auto-phosphorylation activity was measured using the AlphaScreen® (αscreen) format (Perkin Elmer). All compounds tested were dissolved in dimethyl sulfoxide (DMSO) and further dilutions were made in assay buffer. Final DMSO concentration was 1% (v/v) in assays. Assay buffer was 50 mM Tris pH 7.5 containing 1 mM EGTA (ethylene glycol tetraacetic acid), 1 mM DTT (dithiothreitol), 0.1 mM Na3VO4, 5 mM MgCl2, 0.01% Tween® 20. Assays were carried out in 384 well Alphaplates (Perkin Elmer). Incubations consisted of compound, 25 microM Adenosine-5′-triphosphate (ATP), and 0.2 nM NIK/MAP3K14. Incubations were initiated by addition of GST-tagged NIK/MAP3K14 enzyme, carried out for 1 h at 25° C. and terminated by addition of stop buffer containing anti-phospho-IKK Ser176/180 antibody. Protein A Acceptor and Glutathione-Donor beads were added before reading using an EnVision® Multilabel Plate Reader (Perkin Elmer). Signal obtained in the wells containing blank samples was subtracted from all other wells and IC50's were determined by fitting a sigmoidal curve to % inhibition of control versus Log10 compound concentration.

IC50 [1] [nM] | IC50 [4] [nM] | IC50 [6] [nM] | SMILES | EC50 [2] [nM] | EC50 [3] [nM] | EC50 [5] [nM]
119 | 55 | 25 | CC(C)Cn1cc(-c2cn[nH]c2)c2cc(C#CC(C)(C)O)ncc21 [Compound 21] | 629 | 427 | 1120
214 | 9 | 35 | CCn1cc(-c2c[nH]nc2C#N)c2cc(C#CC(C)(C)O)ncc21 [Compound 31] | 2380 | 3940 | 4900
377 | 76 | 171 | CN1CC(n2cc(-c3cn[nH]c3)c3cc(C#CC(C)(C)O)ncc32)C1 [Compound 34] | 3660 | 2200 | > 30000
149 | 29 | 23 | CCn1cc(-c2c[nH]nc2C)c2cc(C#CC(C)(C)O)ncc21 [Compound 30] | 1690 | 2410 | 8230
1770 | 224 | 232 | CC(C)(O)C#Cc1cc2c(-c3cn[nH]c3)cn(Cc3ccccc3)c2cn1 [Compound 22] | 6080 | 5530 | 5230
302 | 57 | 43 | CCCC(C)n1cc(-c2cn[nH]c2)c2cc(C#CC(C)(C)O)ncc21 (stereo not drawn) [Compound 23] | 848 | 625 | 1080
1010 | 68 | 44 | CC(C)(O)C#Cc1cc2c(-c3c[nH]nc3C#N)cn(CC(C)(C)O)c2cn1 [Compound 32] | 5670 | 22600 | > 30000
460 | 14 | 55 | CC(C)(O)C#Cc1cc2c(-c3cn[nH]c3)cn(S(C)(=O)=O)c2cn1 [Compound 25] | 1900 | 2260 | 4980

Continued, compound first:

SMILES | IC50 [1] [nM] | IC50 [4] [nM] | IC50 [6] [nM] | EC50 [2] [nM] | EC50 [3] [nM] | EC50 [5] [nM]
CN1CCC(n2cc(-c3cn[nH]c3)c3cc(C#CC(C)(C)O)ncc32)CC1 [Compound 19] | 602 | 65 | 98 | 704 | 570 | 11600
OCCn1cc(-c2cn[nH]c2)c2cc(C#CC3(O)CCCC3)ncc21 [Compound 13] | 242 | 14 | 17 | 23800 | 11000 | > 30000
Cn1cc(-c2cn[nH]c2)c2cc(C#CC3(O)CCCC3)ncc21 [Compound 8] | 406 | 21 | 7 | 3330 | 5860 | 9540
CC(C)(O)C#Cc1cc2c(-c3cn[nH]c3)cn(CCO)c2cn1 [Compound 12] | 185 | 47 | 22 | 1500 | 2450 | 8500
COCCn1cc(-c2cn[nH]c2)c2cc(C#CC(C)(C)O)ncc21 [Compound 16] | 523 | 92 | 99 | 4050 | 3140 | 20400
OC1(C#Cc2cc3c(-c4cn[nH]c4)c[nH]c3cn2)CCCC1 [Compound 6] | 1120 | 19 | 26 | 6880 | 10700 | > 30000
CC(C)(O)Cn1cc(-c2cn[nH]c2)c2cc(C#CC(C)(O)c3nccs3)ncc21 (stereo not drawn) [Compound 15] | 47 | 10 | 43 | 3850 | > 30000 | > 30000
CC(O)(C#Cc1cc2c(-c3cn[nH]c3)c[nH]c2cn1)c1nccs1 (stereo not drawn) [Compound 7] | 882 | 9 | 9 | > 30000 | 5390 | > 30000
CC(C)(O)C#Cc1cc2c(-c3cn[nH]c3)cn(CC(C)(C)O)c2cn1 [Compound 14] | 132 | 18 | 108 | 1400 | 1330 | 12100
Cn1cc(-c2cn[nH]c2)c2cc(C#CC(C)(C)O)ncc21 [Compound 4] | 210 | 28 | 11 | 1150 | 1030 | 4720
CC(C)(O)C#Cc1cc2c(-c3cn[nH]c3)cn(CCCO)c2cn1 [Compound 5] | 71 | 16 | 14 | 1200 | 791 | 18800
CC(C)(O)C#Cc1cc2c(-c3cn[nH]c3)cn(CC3CCOC3)c2cn1 (stereo not drawn) [Compound 2] | 829 | 129 | 83 | 3950 | 4340 | 21300
CC(C)n1cc(-c2cn[nH]c2)c2cc(C#CC(C)(C)O)ncc21 [Compound 11] | 20 | 6 | 21 | 258 | 283 | 916
CC(C)(O)C#Cc1cc2c(-c3cn[nH]c3)c[nH]c2cn1 [Compound 1] | 736 | 60 | 53 | 3340 | 6980 | > 30000
